Where a SMILES comes first, the peptide text is derived from it. [ ]: non-standard residue; d: D form. 3Pal = N[C@@H](Cc1cccnc1)C(=O)O; Aad = N[C@@H](CCCC(=O)O)C(=O)O; Cit = NC(=O)NCCC[C@H](N)C(=O)O; Aic = NC1(C(=O)O)Cc2ccccc2C1; Phg = N[C@H](C(=O)O)c1ccccc1; Ac8c = NC1(C(=O)O)CCCCCCC1; Ac7c = NC1(C(=O)O)CCCCCC1; Ac6c = NC1(C(=O)O)CCCCC1; Ac5c = NC1(C(=O)O)CCCC1; Deg = CCC(N)(CC)C(=O)O; Aib = CC(C)(N)C(=O)O
Biological target: T1, human glucagon-like peptide-1 receptor (GLP-1R) (Homo sapiens, UniProt P43220)
T1 construct: host or cells: CHO chAMPion cells
Experiment: Human GLP-1 receptor cell-based assay (flash luminescence, Target Activation phase)
Conditions: CHO chAMPion cells stably co-expressing human GLP-1R, Photina and cAMP-activated calcium channel; agonist activity; normalization by forskolin at 10 μM; ^a) values from single experiment; read-out: EC50 (μM) Target Activation (TA)
In short: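 CHO cells co-expressing human GLP-1R, photoprotein and a cAMP-gated Ca2+ channel, preloaded 4 h with coelenterazine and 500 μM IBMX. Compounds at 8 concentrations from 50 μM, quadruplicate; 30 min later 10 mM CaCl2 added and flash luminescence read. EC50 normalized to 10 μM forskolin or 3.16 nM GLP-1.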

T1 sequence (P43220 24-463): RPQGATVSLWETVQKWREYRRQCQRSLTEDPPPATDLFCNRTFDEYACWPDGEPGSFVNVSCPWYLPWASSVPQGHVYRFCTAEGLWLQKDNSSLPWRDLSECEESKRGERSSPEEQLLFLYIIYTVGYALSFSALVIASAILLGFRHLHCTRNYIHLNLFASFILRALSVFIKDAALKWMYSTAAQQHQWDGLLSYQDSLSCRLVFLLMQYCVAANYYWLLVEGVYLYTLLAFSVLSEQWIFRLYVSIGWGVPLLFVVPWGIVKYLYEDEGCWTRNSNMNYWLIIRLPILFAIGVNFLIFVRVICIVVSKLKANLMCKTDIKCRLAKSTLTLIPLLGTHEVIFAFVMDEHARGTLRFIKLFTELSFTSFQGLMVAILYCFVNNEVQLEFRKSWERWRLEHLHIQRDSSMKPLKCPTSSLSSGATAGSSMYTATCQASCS

| Structure (SMILES) | EC50 |
| --- | --- |
| CC(C)C[C@@H]1NC(=O)[C@H](CCC(=O)O)NC(=O)[C@H](Cc2ccccc2)NC(=O)C2(CCCCC2)NC(=O)[C@H]2CCCN2C(=O)[C@H](Cc2ccc(O)cc2)NC(=O)[C@H](CCCNC(N)=O)NC(=O)[C@H](Cc2c[nH]c3ccccc23)NC(=O)[C@H](C)NC(=O)[C@H](Cc2ccc(O)cc2)NC1=O [compound 38, cyclo(-Phe-Glu-Leu-Tyr-Ala-Trp-Cit-Tyr-^DPro-Chx-)] (cyclo(FELYAW[Cit]Y[dP][Ac6c])) | 0.93 µM |
| CC(C)C[C@@H]1NC(=O)[C@H](CCC(=O)O)NC(=O)[C@H](Cc2ccccc2)NC(=O)C2(CCCCC2)NC(=O)[C@H]2CCCN2C(=O)[C@H](Cc2c[nH]cn2)NC(=O)[C@H](CCC(=O)O)NC(=O)[C@H](Cc2c[nH]c3ccccc23)NC(=O)[C@H](C)NC(=O)[C@H](Cc2ccc(O)cc2)NC1=O [compound 39, cyclo(-Phe-Glu-Leu-Tyr-Ala-Trp-G lu-H is-^DP ro-Chx-)] (cyclo(FELYAWEH[dP][Ac6c])) | 1 ± 0.1 µM |
| CC(C)C[C@@H]1NC(=O)[C@H](CCC(N)=O)NC(=O)[C@H](Cc2ccccc2)NC(=O)C2(CCCCC2)NC(=O)[C@H]2CCCN2C(=O)[C@H](Cc2ccc(O)cc2)NC(=O)[C@H](CCC(=O)O)NC(=O)[C@H](Cc2c[nH]c3ccccc23)NC(=O)[C@H](C)NC(=O)[C@H](Cc2ccc(O)cc2)NC1=O [compound 40, cyclo(-Phe-Gln-Leu-Tyr-Ala-Trp-Glu-Tyr-^DPro-Chx-)] (cyclo(FQLYAWEY[dP][Ac6c])) | 1.2 ± 0.6 µM |
| CC(C)C[C@@H]1NC(=O)[C@H](CCC(=O)O)NC(=O)[C@H](Cc2ccccc2)NC(=O)C2(CCCCC2)NC(=O)[C@H]2CCCN2C(=O)[C@H](Cc2cccnc2)NC(=O)[C@H](CCC(=O)O)NC(=O)[C@H](Cc2c[nH]c3ccccc23)NC(=O)[C@H](C)NC(=O)[C@H](Cc2ccc(O)cc2)NC1=O [compound 41, cyclo(-Phe-Glu-Leu-Tyr-Ala-Trp-Glu-3Pal-^DPro-Chx-)] (cyclo(FELYAWE[3Pal][dP][Ac6c])) | 0.83 ± 0.6 µM |
| CC(C)C[C@@H]1NC(=O)[C@H](CCC(=O)O)NC(=O)[C@H](Cc2ccccc2)NC(=O)C2(CCCCC2)NC(=O)[C@H]2CCCN2C(=O)[C@H](CCCNC(=N)N)NC(=O)[C@H](CCC(=O)O)NC(=O)[C@H](Cc2c[nH]c3ccccc23)NC(=O)[C@H](C)NC(=O)[C@H](Cc2ccc(O)cc2)NC1=O [compound 42, cyclo(-Phe-Glu-Leu-Tyr-Ala-Trp-Glu-Arg-^DPro-Chx-)] (cyclo(FELYAWER[dP][Ac6c])) | 2.2 ± 1 µM |
| CC(C)C[C@@H]1NC(=O)[C@H](CC(C)C)NC(=O)[C@H](CCC(=O)O)NC(=O)[C@H](Cc2ccccc2)NC(=O)C2(CCCC2)NC(=O)[C@H]2CCCN2C(=O)[C@H](Cc2ccccc2)NC(=O)[C@H](CCC(=O)O)NC(=O)[C@H](Cc2c[nH]c3ccccc23)NC(=O)[C@H](C)NC1=O [compound 44, cyclo(-Phe-Glu-Leu-Leu-Ala-Trp-Glu-Phe-^DPro-Cyp-)] (cyclo(FELLAWEF[dP][Ac5c])) | 2.9 ± 0.7 µM |
| CC(C)C[C@@H]1NC(=O)[C@H](CC(C)C)NC(=O)[C@H](CCC(=O)O)NC(=O)[C@H](Cc2ccccc2)NC(=O)C(C)(C)NC(=O)[C@H]2CCCN2C(=O)[C@H](Cc2ccccc2)NC(=O)[C@H](CCC(=O)O)NC(=O)[C@H](Cc2c[nH]c3ccccc23)NC(=O)[C@H](C)NC1=O [compound 45, cyclo(-Phe-Glu-Leu-Leu-Ala-Trp-Glu-Phe-^DPro-Aib-)] (cyclo(FELLAWEF[dP][Aib])) | 1.8 µM |
| CC(C)C[C@@H]1NC(=O)[C@H](CCC(N)=O)NC(=O)[C@H](Cc2c[nH]c3ccccc23)NC(=O)[C@H](Cc2ccccc2)NC(=O)C2(CCCC2)NC(=O)[C@H]2CCCN2C(=O)[C@H](Cc2ccccc2)NC(=O)[C@H](CCC(=O)O)NC(=O)[C@H](Cc2c[nH]c3ccccc23)NC(=O)[C@H](C)NC1=O [compound 46, cyclo(-Phe-Trp-Gln-Leu-Ala-Trp-Glu-Phe-^DPro-Cyp-)] (cyclo(FWQLAWEF[dP][Ac5c])) | 5.1 ± 1.4 µM |
| CCC1(CC)NC(=O)[C@H]2CCCN2C(=O)[C@H](Cc2ccccc2)NC(=O)[C@H](CCC(=O)O)NC(=O)[C@H](Cc2c[nH]c3ccccc23)NC(=O)[C@H](C)NC(=O)[C@H](CC(C)C)NC(=O)[C@H](CC(C)C)NC(=O)[C@H](CCC(=O)O)NC(=O)[C@H](Cc2ccccc2)NC1=O [compound 47, cyclo(-Phe-Glu-Leu-Leu-Ala-Trp-Glu-Phe-^DPro-Deg-)] (cyclo(FELLAWEF[dP][Deg])) | 2 µM |
| CC(C)C[C@@H]1NC(=O)[C@H](CCC(=O)O)NC(=O)[C@H](Cc2ccccc2)NC(=O)C2(CCCC2)NC(=O)[C@H]2CCCN2C(=O)[C@H](Cc2ccccc2)NC(=O)[C@H](CCC(=O)O)NC(=O)[C@H](Cc2c[nH]c3ccccc23)NC(=O)[C@H](C)NC(=O)[C@H](Cc2ccc(O)cc2)NC1=O [compound 48, cyclo(-Phe-Glu-Leu-Tyr-Ala-Trp-Glu-Phe-^DPro-Cyp-)] (cyclo(FELYAWEF[dP][Ac5c])) | 0.9 ± 0.18 µM |
| CC(C)C[C@@H]1NC(=O)[C@H](CCC(N)=O)NC(=O)[C@H](Cc2ccccc2)NC(=O)C2(CCCCC2)NC(=O)[C@H]2CCCN2C(=O)[C@H](Cc2ccc(O)cc2)NC(=O)[C@H](CCCC(=O)O)NC(=O)[C@H](Cc2c[nH]c3ccccc23)NC(=O)[C@H](C)NC(=O)[C@H](Cc2ccc(O)cc2)NC1=O [compound 49, cyclo(-Phe-Gln-Leu-Tyr-Ala-Trp-Hgl-Tyr-^DPro-Chx-)] (cyclo(FQLYAW[Aad]Y[dP][Ac6c])) | 3.1 µM |
| CC(C)C[C@@H]1NC(=O)[C@H](CCC(=O)O)NC(=O)[C@H](Cc2ccccc2)NC(=O)C2(CCCCC2)NC(=O)[C@H]2CCCN2C(=O)[C@H](c2ccccc2)NC(=O)[C@H](CCC(=O)O)NC(=O)[C@H](Cc2c[nH]c3ccccc23)NC(=O)[C@H](C)NC(=O)[C@H](Cc2ccc(O)cc2)NC1=O [compound 50, cyclo(-Phe-Glu-Leu-Tyr-Ala-Trp-Glu-Phg-^DPro-Chx-)] (cyclo(FELYAWE[Phg][dP][Ac6c])) | 2.4 µM |
| CC(C)C[C@@H]1NC(=O)[C@H](Cc2c[nH]cn2)NC(=O)[C@H](Cc2ccccc2)NC(=O)C(C)(C)NC(=O)[C@H]2CCCN2C(=O)[C@H](Cc2ccc(O)cc2)NC(=O)[C@H](CCC(N)=O)NC(=O)[C@H](Cc2c[nH]c3ccccc23)NC(=O)[C@H](C)NC(=O)[C@H](Cc2ccc(O)cc2)NC1=O [compound 51, cyclo(-Phe-His-Leu-Tyr-Ala-Trp-Gln-Tyr-^DPro-Aib-)] (cyclo(FHLYAWQY[dP][Aib])) | 3.3 µM |
| CC(C)C[C@@H]1NC(=O)[C@H](CC(C)C)NC(=O)[C@H](CCC(=O)O)NC(=O)[C@H](Cc2ccccc2)NC(=O)C2(Cc3ccccc3C2)NC(=O)[C@H]2CCCN2C(=O)[C@H](Cc2ccccc2)NC(=O)[C@H](CCC(=O)O)NC(=O)[C@H](Cc2c[nH]c3ccccc23)NC(=O)[C@H](C)NC1=O [compound 52, cyclo(-Phe-Glu-Leu-Leu-Ala-Trp-Glu-Phe-^DPro-Ind-)] (cyclo(FELLAWEF[dP][Aic])) | 0.82 ± 0.25 µM |
| CC(C)C[C@@H]1NC(=O)[C@H](CC(C)C)NC(=O)[C@H](CCC(=O)O)NC(=O)[C@H](Cc2ccccc2)NC(=O)C2(CCCCCC2)NC(=O)[C@H]2CCCN2C(=O)[C@H](Cc2ccccc2)NC(=O)[C@H](CCC(=O)O)NC(=O)[C@H](Cc2c[nH]c3ccccc23)NC(=O)[C@H](C)NC1=O [compound 53, cyclo(-Phe-Glu-Leu-Leu-Ala-Trp-Glu-Phe-^DPro-Ac7c-)] (cyclo(FELLAWEF[dP][Ac7c])) | 2.1 µM |
| CC(C)C[C@@H]1NC(=O)[C@H](CC(C)C)NC(=O)[C@H](CCC(=O)O)NC(=O)[C@H](Cc2ccccc2)NC(=O)C2(CCCCCCC2)NC(=O)[C@H]2CCCN2C(=O)[C@H](Cc2ccccc2)NC(=O)[C@H](CCC(=O)O)NC(=O)[C@H](Cc2c[nH]c3ccccc23)NC(=O)[C@H](C)NC1=O [compound 54, cyclo(-Phe-Glu-Leu-Leu-Ala-Trp-Glu-Phe-^DPro-Ac8c-)] (cyclo(FELLAWEF[dP][Ac8c])) | 1.1 µM |
